This is an account of results in patent US11208642B2, “Microbial syringol utilization” (Alliance for Sustainable Energy, LLC, priority 2018, dated 2021).

One assay concerns the target T1, GcoA-F169A and GcoB (Amycolatopsis sp., UniProt P0DPQ7, F169A/H210Q).
T1 construct: GST (N, cleaved yes); made in house; host or cells: E. coli Rosetta 2 (DE3)
Kind of assay: Stoichiometric end-point analysis of reactants and products (HPLC, formaldehyde assay). The class given is biochemical. The note with it: for Formaldehyde produced: 100 μM substrate, 210 μM O2, reaction to completion. On the procedure: FIG. 3 depicts quantitative analyses of substrate consumption and product generation indicate nearly complete coupling of NADH/O2 consumption to substrate O-demethylation for guaiacol, and progressively more uncoupling for syringol and 3MC. NADH (200 μM) and guaiacol, syringol, or 3MC (100 or 200 μM) were incubated in air with 0.2 μM GcoA-F169A and GcoB (each) (25 mM HEPES, 50 mM NaCl, pH 7.5, 25° C., 210 μM O2). Reactants and products were quantified when the UV/vis spectra ceased changing and the reaction deemed complete. The total NADH consumed is compared above to the amounts of formaldehyde and de-methylated aromatic compound produced. Pyrogallol, the O-demethylated product of 3MC, was not detected under any condition. Error bars represent ±1 standard deviation from three or more independent measurements.
Since both methoxy groups of syringol can potentially serve as substrates, we examined syringol turnover in a number of ways. Syringol (100 μM) was first incubated with NADH (200 μM) and excess dissolved O2 (210 μM), and the reaction with the GcoA-F169A mutant allowed to go to completion. As with the guaiacol reaction, all of the NADH and syringol were consumed (FIG. 3), implying that syringol undergoes two O-demethylations, producing 3MC and then pyrogallol (210 μM O2, 25 mM HEPES, 50 mM NaCl, pH 7, 25° C.).
The stoichiometric analysis was next repeated with NADH and syringol present in equal concentrations (200 μM each; 210 μM O2), conditions expected to permit at most half of the available methoxy groups to react. All of the NADH and 150±6 μM of syringol were consumed; 200±3 μM formaldehyde and 120±2 μM 3MC were generated (Table 1, FIG. 3).
Formaldehyde determination. A colorimetric assay using tryptophan can be used to quantify the amount of formaldehyde produced in F169 GcoA/B reactions with guaiacol, syringol, or 3MC. 0.2 μM each of F169 GcoA mutants and GcoB were dissolved in air-saturated buffer (25 mM HEPES, 50 mM NaCl) in a cuvette at pH 7.5, 25° C. 100 μg/mL catalase was added to each reaction to capture any H2O2 formed during the uncoupled reaction. Two hundred μM NADH was added and the background rate recorded. One hundred (guaiacol, syringol, or 3MC) or 200 (syringol) μM of substrate was then added and the reaction monitored until there was no more change, due to either substrate, NADH or O2 depletion, whichever occurred first. 200 μL of the reaction was then quenched by adding 200 μL of a 0.1% tryptophan solution in 50% ethanol and 200 μL of 90% sulfuric acid. Upon thorough mixing, 40 μL of 1% FeCl3 was added. The solution was then incubated in a heating block for 90 min at 70° C. After cooling, the absorbance was read at 575 nm and the concentration of formaldehyde was calculated by using ε575 nm=4.2 mM^−1 cm^−1, obtained with formaldehyde as a standard. A negative control included everything but the substrate and was used as a baseline.
Analyte analysis of the above end-point reactions (100 μM guaiacol, syringol, or 3MC, or 200 μM syringol) was performed on an Agilent 1100 LC system (Agilent Technologies) equipped with a G1315B diode array detector (DAD). Each sample and standard was injected at a volume of 10 μL onto a Symmetry C18 column 5 μm, 4.6×150 mm column (Waters). The column temperature was maintained at 30° C. and the buffers used to separate the analytes of interest was 0.01% TFA in water (A)/acetonitrile (B). The separation was carried out using a gradient program of: (A)=99% and (B)=1% at time t=0 min; (A)=99% and (B)=1% at time t=2 min, (A)=50% and (B)=50% at t=8 min; (A)=1% and (B)=99% at t=8.01 min; (A)=99% and (B)=1% at t=10.01 min; (A)=99% and (B)=1% at t=11 min. The flow rate was held constant at 1.5 mL min^−1, resulting in a run time of 11 minutes. DAD wavelengths of 210 and 325 nm were used for analysis of the analytes of interest. Standard curves were generated using 0-500 μM of guaiacol, syringol, 3MC, catechol, and pyrogallol. […]

The target in a further assay is GcoA (Amycolatopsis sp., UniProt P0DPQ7, H210Q). Kind of assay: Syringol binding to wild-type GcoA (KD). The source says:
The syringol binding mode can be modulated by active site engineering. Guaiacol assumes a productive orientation in the active site of GcoA due to the action of amino acid side chains that create a tight-fitting hydrophobic pocket. The closest contact is with GcoA-F169, which forms a hydrophobic interaction with the C6 carbon on the aromatic ring of guaiacol. […] We identified that the mutation of GcoA-F169 to a smaller residue may relieve the apparent steric clash between it and the bound ligand in the active site, allowing syringol to adopt a productive conformation. To test this hypothesis, GcoA-F169 was substituted with several alternative amino acids (A, S, H, V, I, and L) with the aim of introducing productive syringol turnover while retaining reactivity with guaiacol.

[1] abbreviates: 200 μM syringol, 200 μM NADH, 210 μM O2.

T1 sequence (P0DPQ7 whole entry F169A/H210Q): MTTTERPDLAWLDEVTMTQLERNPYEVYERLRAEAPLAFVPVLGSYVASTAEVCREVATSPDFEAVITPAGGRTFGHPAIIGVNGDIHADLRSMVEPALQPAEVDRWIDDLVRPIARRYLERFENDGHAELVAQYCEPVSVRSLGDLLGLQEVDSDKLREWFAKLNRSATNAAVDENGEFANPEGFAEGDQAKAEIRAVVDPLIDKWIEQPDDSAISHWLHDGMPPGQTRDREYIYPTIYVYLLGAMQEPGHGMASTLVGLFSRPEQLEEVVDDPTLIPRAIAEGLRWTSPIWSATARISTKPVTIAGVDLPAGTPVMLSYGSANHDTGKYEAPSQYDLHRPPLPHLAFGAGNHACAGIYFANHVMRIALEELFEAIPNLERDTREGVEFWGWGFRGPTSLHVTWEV
Sequence of GcoA (P0DPQ7 whole entry H210Q): as the sequence (P0DPQ7 whole entry F169A/H210Q) above, with A169F counted along it

For the molecule `COc1cccc(O)c1O` [3MC, 3-methoxycatechol], the Formaldehyde produced entry on GcoA-F169A and GcoB (200 μM NADH) is recorded as “approximately 100 μM”.
For `COc1cccc(OC)c1O` [syringol, 2,6-dimethoxyphenol], on GcoA, the Kd (usually a measure of binding affinity in units of concentration) was found to be 2.8 ± 0.4 µM. This molecule also had a Formaldehyde produced at GcoA-F169A and GcoB (200 μM NADH) of 170 ± 10 µM. Further, the “Singly demethylated intermediate 3MC observed at end of reaction” value at GcoA-F169A and GcoB (100 μM syringol, 200 μM NADH, 210 μM O2) turned out to be 50 ± 4 µM. On GcoA-F169A and GcoB (setting [1]), the 3MC generated was determined as 120 ± 2 µM, the Formaldehyde generated turned out to be 200 ± 3 µM and the Syringol consumed worked out at 150 ± 6 µM. On GcoA-F169A and GcoB (any of the conditions used), the Pyrogallol detection entry is on record as “not detected”.
